Test results taken from the supplement of paper PMC11208160.
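Wherever recombinant UMI read abundance after kanamycin selection (control-corrected) is given: IS621 bridge recombinase in Escherichia coli cells against a fixed T5 target plasmid.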
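Wherever recombinant barcode read abundance after kanamycin selection (control-corrected) is given: IS621 recombinase and bridge RNA in Escherichia coli cells.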

Experiment: recombinant barcode read abundance after kanamycin selection (control-corrected) (log10(CPM+1)); higher = more efficient recombination; sequences stand for … in AGTGCAGAGAAAATCGGCCAGTTTTCTCTGCCTGCAGTCCGCATGCCGT…AGATTTATGCAGCGGACTGCCTTTCTCCCAAAGTGATAAACCGGACAGTATCATGGACCGGTTTTCCCGGTAATCCGTATTTGCAAGGTTGGTTTCACT; site = the 11-nt target
Procedure: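 Pooled E. coli target-specificity screen for the IS621 bridge recombinase. Each library plasmid pairs an 11-nt target (CT core) with a bridge RNA whose target-binding loop (9-nt LTG + 4-nt RTG) is reprogrammed; the rest of the 177-nt WT IS621 bridge RNA scaffold is fixed. The plasmid is co-electroporated with a WT donor plasmid; recombinase is induced with 0.1 mM IPTG and recombinants are selected on kanamycin. Recombinant barcodes are sequenced, converted to CPM, averaged over two biological replicates and corrected by the unselected control CPM. Molecule = full bridge RNA written as DNA: LTG = specificity nt 1-9, RTG = reverse complement of specificity nt 8-11, in the WT scaffold.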
With “AAAACTACTTGGGTTCTAACCTGTTGCCA (site AAAACTACTTG)” the “recombinant barcode read abundance (log10)” value was 0.2.
In the case of “AAAACTACTTGGGTTCTAACCTGTTGCCA (site AATGCTACTTG)”, the “recombinant barcode read abundance (log10)” value is reported as 0.15.
With “AAAAGCCCTTGGGTTCTAACCTGTTGCCT (site AAAAGCCCTAG)” the “recombinant barcode read abundance (log10)” value was 0.77.
In the case of “AAAAGCCCTTGGGTTCTAACCTGTTGCCT (site ACAAGCCCTAG)”, the “recombinant barcode read abundance (log10)” value is reported as 0.154.
For “AAAAGCCCTTGGGTTCTAACCTGTTGCCT (site AGAAGCCCTAG)”, the “recombinant barcode read abundance (log10)” value was 0.0771.
In the case of “AAAAGCCCTTGGGTTCTAACCTGTTGCCT (site ATAAGCCCTAG)”, the “recombinant barcode read abundance (log10)” value is reported as 0.357.
For “AAACGCTCTTGGGTTCTAACCTGTTGCCT (site AAACGCTCTAG)”, the “recombinant barcode read abundance (log10)” value was 1.75.
For “AAACGCTCTTGGGTTCTAACCTGTTGCCT (site TAACGCTCTAG)”, the “recombinant barcode read abundance (log10)” value was 0.446.
In the case of “AAACTAACTTGGGTTCTAACCTGTTGCCT (site AAACTAACTAG)”, the “recombinant barcode read abundance (log10)” value is reported as 1.31.
In the case of “AAACTAACTTGGGTTCTAACCTGTTGCCT (site ACACTAACTAG)”, the “recombinant barcode read abundance (log10)” value is reported as 0.167.
In the case of “AAACTAACTTGGGTTCTAACCTGTTGCCT (site AGACTAACTAG)”, the “recombinant barcode read abundance (log10)” value is reported as 0.0602.
For “AAACTAACTTGGGTTCTAACCTGTTGCCT (site ATACTAACTAG)”, the “recombinant barcode read abundance (log10)” value was 0.073.
For “AAACTTACTTGGGTTCTAACCTGTTGCCT (site AAACTTACTAG)”, the “recombinant barcode read abundance (log10)” value was 0.721.
With “AAACTTACTTGGGTTCTAACCTGTTGCCT (site AGATTTACTAG)” the “recombinant barcode read abundance (log10)” value was 0.0102.
In the case of “AAAGCTCCTTGGGTTCTAACCTGTTGCTT (site AAAGCTACTAG)”, the “recombinant barcode read abundance (log10)” value is reported as 0.0734.
For “AAAGCTCCTTGGGTTCTAACCTGTTGCTT (site AAAGCTCCTAA)”, the “recombinant barcode read abundance (log10)” value was 0.318.
For “AAAGGGACTTGGGTTCTAACCTGTTGCCT (site AAAGGGACTAG)”, the “recombinant barcode read abundance (log10)” value was 2.08.
For “AAAGGGACTTGGGTTCTAACCTGTTGCCT (site AAGGAGACTAG)”, the “recombinant barcode read abundance (log10)” value was 0.191.
For “AAATCTGCTTGGGTTCTAACCTGTTGCCT (site AAATCTGCTAG)”, the “recombinant barcode read abundance (log10)” value was 0.122.
With “AAATCTGCTTGGGTTCTAACCTGTTGCCT (site GGTGGGACTGT)” the “recombinant barcode read abundance (log10)” value was 0.229.
For “AACAAGCCTTGGGTTCTAACCTGTTGCTG (site AACAAGCCTCA)”, the “recombinant barcode read abundance (log10)” value was 0.896.
In the case of “AACAAGCCTTGGGTTCTAACCTGTTGCTG (site AACATGCCTAA)”, the “recombinant barcode read abundance (log10)” value is reported as 0.0487.
In the case of “AACACGACTTGGGTTCTAACCTGTTGCTC (site AACACGACTGA)”, the “recombinant barcode read abundance (log10)” value is reported as 0.171.
For “AACACGACTTGGGTTCTAACCTGTTGCTC (site CCATATGCTAG)”, the “recombinant barcode read abundance (log10)” value was 0.235.
In the case of “AACAGGCCTTGGGTTCTAACCTGTTGCCT (site AACAGGCCTAG)”, the “recombinant barcode read abundance (log10)” value is reported as 0.0525.
With “AACAGGCCTTGGGTTCTAACCTGTTGCCT (site TGTGACACTTT)” the “recombinant barcode read abundance (log10)” value was 0.
With “AACATACCTTGGGTTCTAACCTGTTGCCT (site AACATACCTAG)” the “recombinant barcode read abundance (log10)” value was 0.737.
With “AACATACCTTGGGTTCTAACCTGTTGCCT (site ATCATTCCTAG)” the “recombinant barcode read abundance (log10)” value was 0.564.
With “AACATCACTTGGGTTCTAACCTGTTGCCG (site AACATCACTCG)” the “recombinant barcode read abundance (log10)” value was 1.08.
For “AACATCACTTGGGTTCTAACCTGTTGCCG (site AGCATCACTAG)”, the “recombinant barcode read abundance (log10)” value was 0.
In the case of “AACCACTCTTGGGTTCTAACCTGTTGCCT (site AACCACTCTAG)”, the “recombinant barcode read abundance (log10)” value is reported as 2.42.
With “AACCACTCTTGGGTTCTAACCTGTTGCCT (site CACCACTCTAG)” the “recombinant barcode read abundance (log10)” value was 0.942.
In the case of “AACCACTCTTGGGTTCTAACCTGTTGCCT (site GACCACTCTAG)”, the “recombinant barcode read abundance (log10)” value is reported as 0.266.
For “AACCACTCTTGGGTTCTAACCTGTTGCCT (site TACCACTCTAG)”, the “recombinant barcode read abundance (log10)” value was 1.46.
In the case of “AACCAGTCTTGGGTTCTAACCTGTTGCCG (site AACCAGTCTCG)”, the “recombinant barcode read abundance (log10)” value is reported as 0.898.
With “AACCAGTCTTGGGTTCTAACCTGTTGCCG (site ACCCAGTCTTG)” the “recombinant barcode read abundance (log10)” value was 0.033.
With “AACCCACCTTGGGTTCTAACCTGTTGCCT (site AACCCACCTAG)” the “recombinant barcode read abundance (log10)” value was 1.97.
In the case of “AACCCACCTTGGGTTCTAACCTGTTGCCT (site CACCCACCTAG)”, the “recombinant barcode read abundance (log10)” value is reported as 0.56.
For “AACCCACCTTGGGTTCTAACCTGTTGCCT (site GACCCACCTAG)”, the “recombinant barcode read abundance (log10)” value was 0.0506.
For “AACCCACCTTGGGTTCTAACCTGTTGCCT (site TACCCACCTAG)”, the “recombinant barcode read abundance (log10)” value was 0.997.
For “AACGCCACTTGGGTTCTAACCTGTTGCCT (site AACGCCACTAG)”, the “recombinant barcode read abundance (log10)” value was 0.0293.
With “AACGCCACTTGGGTTCTAACCTGTTGCCT (site GACGCCACTAG)” the “recombinant barcode read abundance (log10)” value was 0.0328.
With “AACGGAGCTTGGGTTCTAACCTGTTGCGG (site AACGGAGCTCC)” the “recombinant barcode read abundance (log10)” value was 1.78.
In the case of “AACGGAGCTTGGGTTCTAACCTGTTGCGG (site TGCGGAGCTCC)”, the “recombinant barcode read abundance (log10)” value is reported as 0.699.
With “AACGTACCTTGGGTTCTAACCTGTTGCAG (site AACGTACCTCT)” the “recombinant barcode read abundance (log10)” value was 1.28.
With “AACGTACCTTGGGTTCTAACCTGTTGCAG (site GTGAAGACTAA)” the “recombinant barcode read abundance (log10)” value was 0.0773.
In the case of “AACTAATCTTGGGTTCTAACCTGTTGCCT (site AACTAATCTAG)”, the “recombinant barcode read abundance (log10)” value is reported as 0.327.
For “AACTAATCTTGGGTTCTAACCTGTTGCCT (site AACTCATCTAG)”, the “recombinant barcode read abundance (log10)” value was 0.0864.
For “AACTAATCTTGGGTTCTAACCTGTTGCCT (site AACTGATCTAG)”, the “recombinant barcode read abundance (log10)” value was 0.0845.
In the case of “AACTAATCTTGGGTTCTAACCTGTTGCCT (site AACTTATCTAG)”, the “recombinant barcode read abundance (log10)” value is reported as 0.0117.
In the case of “AACTAGTCTTGGGTTCTAACCTGTTGCTA (site AACCAGTCTTC)”, the “recombinant barcode read abundance (log10)” value is reported as 0.0577.
In the case of “AACTAGTCTTGGGTTCTAACCTGTTGCTA (site AACTAGTCTTA)”, the “recombinant barcode read abundance (log10)” value is reported as 1.27.
For “AACTATTCTTGGGTTCTAACCTGTTGCCT (site AACTATTCTAG)”, the “recombinant barcode read abundance (log10)” value was 0.374.
For “AACTATTCTTGGGTTCTAACCTGTTGCCT (site ATGTATTCTAG)”, the “recombinant barcode read abundance (log10)” value was 0.114.
In the case of “AACTCATCTTGGGTTCTAACCTGTTGCCT (site AACTAATCTAG)”, the “recombinant barcode read abundance (log10)” value is reported as 0.0366.

Experiment: recombinant UMI read abundance after kanamycin selection (control-corrected) (log10(CPM+1)); higher = more efficient recombination; extreme values may be limits of the assay; sequences stand for … in AGTGCAGAGAAAATCGGCCAGTTTTCTCTGCCTGCAGTCCGCATGCCGTGGGACCCCTTGGGTTCTAACCTGTTGCCTAGATTTATGCAGCGGACTGCCTTTCTCCCAAAGTGATAAACCGG…AGGTTGGTTTCACT; site = the 11-nt donor
Outline: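 Counts of recombinant UMIs were reported as log10(CPM+1). Before that, they were converted to CPM, averaged over replicates and scaled using control-derived factors. They came from PCR across the donor–target junction after Escherichia coli carrying the pair library and target plasmid was plated on IPTG (0.07 mM) plus kanamycin, or unselected, in two replicates each.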
For “TTTGCCGCATGGACCGGTTTTCCCGGTAATCCGTATTTGCT (site TTTGCGGCTAG)”, the “recombinant UMI read abundance (log10)” value was 0.00684.
In the case of “TTTGCCGCATGGACCGGTTTTCCCGGTAATCCGTATTTGCT (site TTTGCTGCTAG)”, the “recombinant UMI read abundance (log10)” value is reported as 0.
For “TTTGGCGCATGGACCGGTTTTCCCGGTAATCCGTATTTGAG (site TTTGGCGCTCT)”, the “recombinant UMI read abundance (log10)” value was 0.115.
With “TTTGGGGCATGGACCGGTTTTCCCGGTAATCCGTATTTGAC (site TTTGGGGCTGT)” the “recombinant UMI read abundance (log10)” value was 1.57.
For “TTTGTTACATGGACCGGTTTTCCCGGTAATCCGTATTTGCC (site TTTGTTACTGG)”, the “recombinant UMI read abundance (log10)” value was 0.44.
In the case of “TTTTTGGCATGGACCGGTTTTCCCGGTAATCCGTATTTGTG (site TATTTGGCTCA)”, the “recombinant UMI read abundance (log10)” value is reported as 0.0105.
For “TTTTTGGCATGGACCGGTTTTCCCGGTAATCCGTATTTGTG (site TCTTTGGCTCA)”, the “recombinant UMI read abundance (log10)” value was 0.0102.
In the case of “TTTTTGGCATGGACCGGTTTTCCCGGTAATCCGTATTTGTG (site TGTTTGGCTCA)”, the “recombinant UMI read abundance (log10)” value is reported as 0.0296.
For “TTTTTGGCATGGACCGGTTTTCCCGGTAATCCGTATTTGTG (site TTTTTGGCTCA)”, the “recombinant UMI read abundance (log10)” value was 0.00438.
